Earlier results as cited in paper PMC2602858 (Cancer epidemiology, biomarkers & prevention : a …, 2008).

Legend:
[1] = tested on: urinary 2-hydroxyestrone: 16α-hydroxyestrone ratio; details: four weeks
[2] = humans, plasma
women = details: I3C 200 and 400 mg twice daily for 4 weeks
CYP1A2 = details: I3C 400 mg twice daily, four weeks

Question: With `OCc1c[nH]c2ccccc12` [I3C, indole-3-carbinol] as the molecule, how does the “change of estrone hydroxylation ratio” value ([1]; I3C 200 mg twice daily) read?
Answer: change in the estrone hydroxylation ratio was obtained

Question: What about the “change of urinary 2-hydroxyestrone: 16α-hydroxyestrone ratio” value ([1]; I3C 400 mg twice daily) of the same molecule?
Answer: doubling

Question: What about the “circulating products detected after oral I3C” value [2] of the same molecule?
Answer: the only detectable circulating product was DIM

Question: What about the adverse effects (women) of the same molecule?
Answer: no adverse effects were reported or observed

Question: What about the “effect on CYP1A2” value (CYP1A2) of the same molecule?
Answer: marked induction
